Data published in PMC4207539 (Journal of Medicinal Chemistry, 2014).
Values joined by “and” are separate entries in the source; they are usually repeats but may differ in a detail not shown here. Equal values may be shown once.

Tests used:
VEEV TC-83 strain = format: cell-based, Venezuelan equine encephalitis virus
CYP2D6 = CYP2D6 (Homo sapiens, UniProt P10635); experiment: in vitro; conditions: pH 7.4
VEEV (TC-83) [1] = experiment: microbe, parasite or virus in culture; conditions: Venezuelan equine encephalitis virus, read-out: EC50, several VEEV strains
VEEV TrD strain = format: cell-based, Venezuelan equine encephalitis virus
[2] = tested on: panel of 67 GPCRs, ion channels and transporters; format: binding; conditions: 10 µM
CYP2C9 = CYP2C9 (Homo sapiens, UniProt P11712); experiment: in vitro; conditions: pH 7.4
Chain of CYP2C9 (P11712 whole entry): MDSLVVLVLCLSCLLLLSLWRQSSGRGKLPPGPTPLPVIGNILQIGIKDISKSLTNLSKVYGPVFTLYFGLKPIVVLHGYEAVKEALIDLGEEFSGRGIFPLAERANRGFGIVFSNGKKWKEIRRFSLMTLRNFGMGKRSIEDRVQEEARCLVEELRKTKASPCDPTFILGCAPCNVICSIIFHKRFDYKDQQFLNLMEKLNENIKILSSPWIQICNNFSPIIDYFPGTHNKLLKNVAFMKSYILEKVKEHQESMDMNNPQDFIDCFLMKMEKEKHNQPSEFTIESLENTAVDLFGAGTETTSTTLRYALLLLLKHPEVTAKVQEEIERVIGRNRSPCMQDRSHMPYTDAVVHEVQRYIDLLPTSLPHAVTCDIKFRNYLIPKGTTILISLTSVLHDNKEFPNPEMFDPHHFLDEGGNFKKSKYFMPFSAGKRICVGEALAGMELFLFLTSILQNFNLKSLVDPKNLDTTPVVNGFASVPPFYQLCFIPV

CYP3A4 = CYP3A4 (Homo sapiens, UniProt P08684); experiment: in vitro; conditions: pH 7.4
Chain of CYP3A4 (P08684 whole entry): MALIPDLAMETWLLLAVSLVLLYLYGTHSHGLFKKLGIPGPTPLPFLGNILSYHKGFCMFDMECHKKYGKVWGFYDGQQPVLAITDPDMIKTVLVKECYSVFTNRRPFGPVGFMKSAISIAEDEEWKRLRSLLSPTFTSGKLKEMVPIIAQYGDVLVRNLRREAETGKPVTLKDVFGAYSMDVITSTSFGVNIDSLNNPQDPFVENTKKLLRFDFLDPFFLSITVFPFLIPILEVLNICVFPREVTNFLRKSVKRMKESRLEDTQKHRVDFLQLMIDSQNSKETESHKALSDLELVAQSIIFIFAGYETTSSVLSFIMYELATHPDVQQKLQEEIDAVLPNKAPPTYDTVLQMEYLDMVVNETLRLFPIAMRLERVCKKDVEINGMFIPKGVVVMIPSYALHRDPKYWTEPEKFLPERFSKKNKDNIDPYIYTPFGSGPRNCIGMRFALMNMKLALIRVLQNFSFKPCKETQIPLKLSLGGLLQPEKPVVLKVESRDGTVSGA

[3] = male, in vivo
[4] = mouse, in vivo, ip
Fa2N-4 cells = conditions: human
CYP2C19 = CYP2C19 (Homo sapiens, UniProt P33261); experiment: in vitro; conditions: pH 7.4
Chain of CYP2C19 (P33261 whole entry): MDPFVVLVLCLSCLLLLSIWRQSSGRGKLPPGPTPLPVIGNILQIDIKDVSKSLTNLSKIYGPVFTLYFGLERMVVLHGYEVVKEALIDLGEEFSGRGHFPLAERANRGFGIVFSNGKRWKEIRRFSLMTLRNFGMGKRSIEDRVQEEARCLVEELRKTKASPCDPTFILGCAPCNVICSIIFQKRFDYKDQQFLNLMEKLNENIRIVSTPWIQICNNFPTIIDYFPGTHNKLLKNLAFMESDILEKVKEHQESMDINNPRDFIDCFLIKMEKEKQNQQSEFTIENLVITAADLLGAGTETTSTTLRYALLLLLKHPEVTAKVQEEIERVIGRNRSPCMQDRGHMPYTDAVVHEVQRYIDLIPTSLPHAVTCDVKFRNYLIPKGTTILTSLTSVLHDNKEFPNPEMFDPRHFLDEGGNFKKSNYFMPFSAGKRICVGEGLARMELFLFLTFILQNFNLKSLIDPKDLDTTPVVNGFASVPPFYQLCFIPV

VEEV (TC-83) [5] = conditions: mouse, in vivo
VEEV (TC-83) [6] = tested on: VEEV (TC-83)

Chain of CYP2D6 (P10635 whole entry): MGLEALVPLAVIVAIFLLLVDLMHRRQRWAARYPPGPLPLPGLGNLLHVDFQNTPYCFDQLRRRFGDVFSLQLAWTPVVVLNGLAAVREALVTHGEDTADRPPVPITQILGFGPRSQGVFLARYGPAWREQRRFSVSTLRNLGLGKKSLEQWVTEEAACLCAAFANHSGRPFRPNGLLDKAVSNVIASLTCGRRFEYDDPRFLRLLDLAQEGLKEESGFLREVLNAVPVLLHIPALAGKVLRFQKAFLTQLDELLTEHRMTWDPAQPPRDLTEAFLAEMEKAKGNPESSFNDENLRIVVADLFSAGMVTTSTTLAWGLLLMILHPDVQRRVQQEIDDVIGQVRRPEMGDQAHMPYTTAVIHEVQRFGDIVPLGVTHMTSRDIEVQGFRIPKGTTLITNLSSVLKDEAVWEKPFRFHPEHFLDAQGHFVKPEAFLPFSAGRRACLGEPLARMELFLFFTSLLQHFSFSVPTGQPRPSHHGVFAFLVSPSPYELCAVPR

SMILES | titer reduction, TC-83 strain (log) (VEEV TC-83 strain) | inhibition at 10 µM (CYP2D6) [%] | EC50 (VEEV (TC-83) [1]) [nM] | titer reduction, TrD strain (VEEV TrD strain) | inhibition of all other targets in the collection [2] [%] | solubility (physchem; aqueous solubility, VEEV CPE assay medium) [µg/mL] | solubility (physchem; pH 7.4, aqueous solubility, 1× PBS, pH 7.4) [µM] | inhibition at 10 µM (CYP2C9) [%] | inhibition at 10 µM (CYP3A4) [%] | plasma and brain concentration over in vitro CPE assay EC50 ([3]; C57Bl/6, mouse) [fold] | brain average concentration ± standard deviation ([3]; C57Bl/6J, mouse) [µM] | toxicity (body weight loss, lethargy, hunched posture, ruffled fur) [4] | hepatocyte toxicity (Fa2N-4), LD50 (Fa2N-4 cells) [µM] | inhibition at 10 µM (CYP2C19) [%] | titer reduction, TC-83 strain (fold) (VEEV TC-83 strain) | titer reduction, TC-83 strain, dose response, EC90 (VEEV TC-83 strain) [nM] | percent survival (VEEV (TC-83) [5]) [%] | lipophilic ligand efficiency, LLE (VEEV (TC-83) [6])
CCN1CCN(Cc2nc3ccc([N+](=O)[O-])cc3c(=O)n2-c2ccccc2F)CC1 [compound 1, 2-((4-Ethylpiperazin-1-yl)methyl)-3-(2-fluorophenyl)-6-nitroquinazolin-4(3H)-one] | 0.5 log (3-fold) | – | – | – | – | – | – | – | – | – | – | – | – | – | – | – | – | –
CN1CCN(C)/C(=N/c2ccc([N+](=O)[O-])cc2C(=O)Nc2ccccc2)C1 [compound 45, (E)-2-((1,4-Dimethylpiperazin-2-ylidene)amino)-5-nitro-N-phenylbenzamide] | – | < 30 | 20 to 40 | no measurable viral replication | ≤ 36 | 13.1 | 110 | < 30 | < 30 | > 10 | 0.35 ± 0.06 | no apparent toxicity or adverse effects were observed | > 25 | < 30 | 5.8 log (630 000 fold) and 7.2 log (16 million fold) | 170 | 71 | –
COc1ccc(NC(=O)c2cc([N+](=O)[O-])ccc2/N=C2\CN(C)CCN2C)cc1 [compound 51, (E)-2-((1,4-Dimethylpiperazin-2-ylidene)amino)-N-(4-methoxyphenyl)-5-nitrobenzamide] | 7.2 log (16 million fold) | – | – | no measurable viral replication | – | – | – | – | – | – | – | – | – | – | 7.2 log (16 million fold) | 170 | – | 4.1
